# Several values for one entry are separate records, joined by “and”; a condition that tells them apart may be missing. Identical values can stand only once.
# Legend:
# [1] = system: LnCAP human xenograft tumors; details: mice bearing LnCAP xenograft, oral 200-300 mg/kg daily or twice a day, 2 weeks; cited from earlier work
# [2] = Pharmacokinetic studies in Cynomolgus monkeys; format: in vivo; details: for AUC(0-t): animals and MEAN
# [3] = Pharmacokinetic studies in rats; format: in vivo, rat; details: male rat
# Description: Pharmacokinetic studies on MDM2 inhibitors were carried out in rat. For comparison, the MDM2 inhibitor, AT-219, was also studied.
# [4] = male Cynomolgus monkeys, IV (10 mg/kg)
# [5] = male Cynomolgus monkeys, IV (10 mg/kg), mean
# [6] = male Cynomolgus monkeys, Oral (50 mg/kg)
# [7] = male Cynomolgus monkeys, Oral (50 mg/kg), mean
substance,measurement,setting,value
MI-219,tumor growth inhibition (in words),[1],effective tumor growth inhibition
same,oral bioavailability in monkeys (in words),[2]; Cynomolgus Monkeys,orally bioavailable
same,Plasma Concentration,"[2]; male Cynomolgus monkeys, IV 10 mg/kg, time point 0.083, animals and Mean",15043.60 ng/mL and 18669.25 ng/mL
same,Plasma Concentration,"[2]; male Cynomolgus monkeys, IV 10 mg/kg, time point 0.083, animals and Mean, mean",16856.43 ng/mL
same,Plasma Concentration,"[2]; male Cynomolgus monkeys, IV 10 mg/kg, time point 0.1",18416.30 ng/mL
same,Plasma Concentration,"[2]; male Cynomolgus monkeys, IV 10 mg/kg, time point 0.25",4144.21 ng/mL and 4818.06 ng/mL and 6877.15 ng/mL
same,Plasma Concentration,"[2]; male Cynomolgus monkeys, IV 10 mg/kg, time point 0.25, mean",5279.81 ng/mL
same,Plasma Concentration,"[2]; male Cynomolgus monkeys, IV 10 mg/kg, time point 0.5",2188.67 ng/mL and 3577.55 ng/mL and 3536.46 ng/mL
same,Plasma Concentration,"[2]; male Cynomolgus monkeys, IV 10 mg/kg, time point 0.5, mean",3100.89 ng/mL
same,Plasma Concentration,"[2]; male Cynomolgus monkeys, IV 10 mg/kg, time point 1",1564.10 ng/mL and 2277.17 ng/mL and 2483.63 ng/mL
same,Plasma Concentration,"[2]; male Cynomolgus monkeys, IV 10 mg/kg, time point 1, mean",2108.30 ng/mL
same,Plasma Concentration,"[2]; male Cynomolgus monkeys, IV 10 mg/kg, time point 2",985.23 ng/mL and 1277.08 ng/mL and 1539.44 ng/mL
same,Plasma Concentration,"[2]; male Cynomolgus monkeys, IV 10 mg/kg, time point 2, mean",1267.25 ng/mL
same,Plasma Concentration,"[2]; male Cynomolgus monkeys, IV 10 mg/kg, time point 3",1230.40 ng/mL and 691.83 ng/mL and 834.00 ng/mL
same,Plasma Concentration,"[2]; male Cynomolgus monkeys, IV 10 mg/kg, time point 3, mean",918.74 ng/mL
same,Plasma Concentration,"[2]; male Cynomolgus monkeys, IV 10 mg/kg, time point 4",348.97 ng/mL and 582.63 ng/mL and 562.45 ng/mL
same,Plasma Concentration,"[2]; male Cynomolgus monkeys, IV 10 mg/kg, time point 4, mean",498.02 ng/mL
same,Plasma Concentration,"[2]; male Cynomolgus monkeys, IV 10 mg/kg, time point 6",246.12 ng/mL and 211.39 ng/mL and 324.99 ng/mL
same,Plasma Concentration,"[2]; male Cynomolgus monkeys, IV 10 mg/kg, time point 6, mean",260.83 ng/mL
same,Plasma Concentration,"[2]; male Cynomolgus monkeys, IV 10 mg/kg, time point 8",180.91 ng/mL and 115.94 ng/mL and 202.16 ng/mL
same,Plasma Concentration,"[2]; male Cynomolgus monkeys, IV 10 mg/kg, time point 8, mean",166.34 ng/mL
same,Plasma Concentration,"[2]; male Cynomolgus monkeys, IV 10 mg/kg, time point 24",5.91 ng/mL and 8.00 ng/mL and 8.34 ng/mL
same,Plasma Concentration,"[2]; male Cynomolgus monkeys, IV 10 mg/kg, time point 24, mean",7.42 ng/mL
same,AUC(0-∞),[2]; [4],11.64787 µg·h/mL and 13.70399 µg·h/mL and 10.30028 µg·h/mL
same,CLz,[2]; [4],0.86 L/h/kg and 0.73 L/h/kg and 0.97 L/h/kg
same,Cmax,[2]; [4],18.66925 µg/mL and 18.4163 µg/mL and 15.0436 µg/mL
same,MRT(0-∞),[2]; [4],2.12 h and 2.44 h and 2.68 h
same,T1/2,[2]; [4],3.25 h and 3.43 h and 3.38 h
same,Vz,[2]; [4],4.03 L/kg and 3.62 L/kg and 4.73 L/kg
same,AUC(0-t),[2]; [4],11.6103 µg·h/mL and 13.66284 µg·h/mL and 10.27139 µg·h/mL
same,AUC(0-t),[2]; [5],11.84818 µg·h/mL
same,AUC(0-∞),[2]; [5],11.88405 µg·h/mL
same,CLz,[2]; [5],0.85 L/h/kg
same,Cmax,[2]; [5],17.37638 µg/mL
same,MRT(0-∞),[2]; [5],2.41 h
same,T1/2,[2]; [5],3.35 h
same,Vz,[2]; [5],4.12 L/kg
same,MRT(0-∞),[2]; [6],6.25 h and 6.38 h and 5.57 h
same,T1/2,[2]; [6],3.03 h and 2.52 h and 3.72 h
same,Tmax,[2]; [6],4.00 h and 3.00 h and 3.33 h
same,MRT(0-∞),[2]; [7],6.06 h
same,T1/2,[2]; [7],3.09 h
same,Plasma Concentration,"[2]; male Cynomolgus monkeys, PO 50 mg/kg, time point 1",192.53 ng/mL and 186.66 ng/mL and 241.02 ng/mL
same,Plasma Concentration,"[2]; male Cynomolgus monkeys, PO 50 mg/kg, time point 1, mean",206.74 ng/mL
same,Plasma Concentration,"[3]; IV 5 mg/kg, 0.083 hr, animals M1, M2 and Mean",5873.30 ng/mL and 5229.30 ng/mL
same,Plasma Concentration,"[3]; IV 5 mg/kg, 0.083 hr, animals M1, M2 and Mean, mean",5551.30 ng/mL
same,Plasma Concentration,"[3]; IV 5 mg/kg, 0.5 hr, animals and Mean",693.45 ng/mL and 548.39 ng/mL
same,Plasma Concentration,"[3]; IV 5 mg/kg, 0.5 hr, animals and Mean, mean",620.92 ng/mL
same,Plasma Concentration,"[3]; IV 5 mg/kg, 1 hr, animals and Mean",330.71 ng/mL and 344.66 ng/mL
same,Plasma Concentration,"[3]; IV 5 mg/kg, 1 hr, animals and Mean, mean",337.68 ng/mL
same,Plasma Concentration,"[3]; IV 5 mg/kg, 2 hr, animals and Mean",164.88 ng/mL and 134.91 ng/mL
same,Plasma Concentration,"[3]; IV 5 mg/kg, 2 hr, animals and Mean, mean",149.90 ng/mL
same,Plasma Concentration,"[3]; IV 5 mg/kg, 4 hr, animals and Mean",49.27 ng/mL and 56.50 ng/mL
same,Plasma Concentration,"[3]; IV 5 mg/kg, 4 hr, animals and Mean, mean",52.88 ng/mL
same,Plasma Concentration,"[3]; IV 5 mg/kg, 6 hr, animals and Mean",24.18 ng/mL and 32.66 ng/mL
same,Plasma Concentration,"[3]; IV 5 mg/kg, 6 hr, animals and Mean, mean",28.42 ng/mL
same,Plasma Concentration,"[3]; IV 5 mg/kg, 8 hr, animals and Mean",11.05 ng/mL and 18.98 ng/mL
same,Plasma Concentration,"[3]; IV 5 mg/kg, 8 hr, animals and Mean, mean",15.02 ng/mL
same,Plasma Concentration,"[3]; IV 5 mg/kg, 24 hr, animals and Mean",1.86 ng/mL and 1.28 ng/mL
same,Plasma Concentration,"[3]; IV 5 mg/kg, 24 hr, animals and Mean, mean",1.57 ng/mL
same,Plasma Concentration,"[3]; PO 25 mg/kg, 0.083 hr, animals M6-M8 and Mean",1526.57 ng/mL and 1380.03 ng/mL and 1642.42 ng/mL
same,Plasma Concentration,"[3]; PO 25 mg/kg, 0.083 hr, animals M6-M8 and Mean, mean",1516.34 ng/mL
same,Plasma Concentration,"[3]; PO 25 mg/kg, 0.5 hr, animals and Mean",3332.19 ng/mL and 2500.25 ng/mL and 4278.56 ng/mL
same,Plasma Concentration,"[3]; PO 25 mg/kg, 0.5 hr, animals and Mean, mean",3370.33 ng/mL
same,Plasma Concentration,"[3]; PO 25 mg/kg, 1 hr, animals and Mean",3101.06 ng/mL and 2957.44 ng/mL and 1779.31 ng/mL
